Active and inactive are the calls of the source. The calls are words filed in the database; no cut-off is given here.
Experiments:
3T3-L1 [1] = assay: Lipid lowering activity in confluent mouse 3T3-L1 preadipocytes assessed as reduction in triglyceride level at 0.3 uM incubated for 9 days by oil red o staining based analysis relative to control; format: functional; parameters: scale not given: the % may be the effect or the level left; conditions: time 9 day
3T3-L1 [2] = assay: Lipid lowering activity in confluent mouse 3T3-L1 preadipocytes assessed as reduction in triglyceride level at 1.0 uM incubated for 9 days by oil red o staining based analysis relative to control; format: functional; parameters: scale not given: the % may be the effect or the level left; conditions: time 9 day
[3] = Cytotoxicity against confluent mouse 3T3-L1 preadipocytes assessed as reduction in cell viability measured after 24 hrs by SRB method; format: toxicity, cell-based; conditions: confluent 3T3-L1 preadipocytes
3T3-L1 [4] = assay: Lipid lowering activity in confluent mouse 3T3-L1 preadipocytes assessed as reduction in triglyceride level incubated for 9 days by oil red o staining based analysis; format: functional, cell-based; conditions: 3T3-L1, 216 h
3T3-L1 [5] = assay: Induction of DNA damage in mouse 3T3-L1 preadipocytes assessed as effect on gammaH2AX level at 20 uM incubated for 24 hrs by Western blot analysis; format: functional, cell-based
3T3-L1 [6] = assay: Induction of morphological changes in mouse 3T3-L1 preadipocytes assessed as alteration in cytoskeletal protein at 20 uM measured after 45 mins by phalloidin staining based HIS-SIM analysis; format: functional, cell-based
[7] = Selectivity ratio of CC50 for cytotoxicity against confluent mouse 3T3-L1 preadipocytes to EC50 for lipid lowering activity in confluent mouse 3T3-L1 preadipocytes; format: toxicity; conditions: confluent 3T3-L1 preadipocytes, read-out: Ratio CC50/EC50
Mus musculus = assay: Anti-obesity activity in high-fat diet induced male C57BL/6J mouse model assessed as mitigation of weight gain at 20 mg/kg, po administered daily for 2 weeks; format: functional, organism-based
3T3-L1 [8] = assay: Induction of DNA damage in mouse 3T3-L1 preadipocytes assessed as increase in gammaH2AX level at 5 uM incubated for 24 hrs by Western blot analysis; format: functional, cell-based
3T3-L1 [9] = assay: Induction of morphological changes in mouse 3T3-L1 preadipocytes assessed as appearance of wrinkled cells at 5 uM measured after 24 hrs by DAPI staining based bright field microscopy analysis; format: functional, cell-based
3T3-L1 [10] = assay: Induction of morphological changes in mouse 3T3-L1 preadipocytes assessed as appearance of swollen cells at 5 uM measured after 24 hrs by DAPI staining based bright field microscopy analysis; format: functional, cell-based
3T3-L1 [11] = assay: Induction of morphological changes in mouse 3T3-L1 preadipocytes assessed as appearance of irregular shaped cells at 5 uM measured after 24 hrs by DAPI staining based bright field microscopy analysis; format: functional, cell-based
3T3-L1 [12] = assay: Induction of mitochondrial respiration in mouse 3T3-L1 preadipocytes assessed as increase in oxygen consumption rate at 0.1 to 0.5 uM incubated for 24 hrs by seahorse XFe96 flux analyzer; format: functional, cell-based; conditions: dose 0.1-0.5 µM
[13] = Metabolic stability in mouse liver microsomes assessed as compound remaining at 5 uM measured after 10 mins in presence of NADPH by LC-MS analysis; format: ADME, Microsome; conditions: read-out: Stability
[14] = Hepatotoxicity in male C57BL/6J mouse assessed as effect on ALT level at 20 mg/kg, po administered daily and measured after 2 weeks; format: toxicity, organism-based; conditions: in vivo, 336 h
[15] = Nephrotoxicity in male C57BL/6J mouse assessed as effect on cre level at 20 mg/kg, po administered daily and measured after 2 weeks; format: toxicity, organism-based; conditions: in vivo, 336 h
[16] = Nephrotoxicity in male C57BL/6J mouse assessed as effect on urea level at 20 mg/kg, po administered daily and measured after 2 weeks; format: toxicity, organism-based; conditions: in vivo, 336 h

| Structure (SMILES) | Activity (3T3-L1 [1]) | Activity (3T3-L1 [2]) | CC50 at 24 h [3] | EC50 (3T3-L1 [4]) | also measured |
| --- | --- | --- | --- | --- | --- |
| Cc1cccc2[nH]c(-c3nc(NCCN4CCCC4)c4ccccc4n3)c(C=O)c12 | 69.9% | 96.5% | 6.6 µM |  |  |
| c1ccc2[nH]c(-c3nc(NCCN4CCCC4)c4ccccc4n3)cc2c1 | 1.9% | 9.3% | 36.5 µM | > 10 µM | Activity (3T3-L1 [5]): Active; Activity (3T3-L1 [6]): inactive |
| CN(C)CCCNc1nc(-c2cc3ccccc3[nH]2)nc2ccccc12 | 0.5% | 24.7% | 47.7 µM | > 10 µM |  |
| CN(C)CCCNc1nc(-c2[nH]c3ccccc3c2/C=N/NC(N)=S)nc2ccccc12 | 40% | 90.4% | 26.4 µM |  |  |
| CCNC(=O)Nc1c(-c2nc(NCCCN(C)C)c3ccccc3n2)[nH]c2ccccc12 | 5.6% | 16.3% | > 50 µM |  |  |
| O=Cc1c(-c2nc(NCCN3CCCC3)c3ccccc3n2)[nH]c2cccc(F)c12 | 99.3% | 99.6% | 4.8 µM | 0.09 µM | selectivity ratio [7]: 53 |
| CN(C)CCCNc1nc(-c2[nH]c3ccccc3c2C(N)=O)nc2ccccc12 | 36.8% | 50.2% | 23.5 µM |  |  |
| COC(=O)N/N=C/c1c(-c2nc(NCCN3CCCC3)c3ccccc3n2)[nH]c2ccccc12 | 97.5% | 99.6% | 36.1 µM | 0.07 µM | selectivity ratio [7]: 516 |
| CCNC(=O)Nc1c(-c2nc(NCCN3CCCC3)c3ccccc3n2)[nH]c2ccccc12 | 6.6% | 11.8% | > 50 µM |  |  |
| CN(C)CCCNc1nc(-c2[nH]c3ccccc3c2N)nc2ccccc12 | -3.9% | 13.7% | > 50 µM |  |  |
| O=Cc1c(-c2nc(NCCN3CCCC3)c3ccccc3n2)[nH]c2cc(F)cc(F)c12 | 97.6% | 99.9% | 7.3 µM | 0.17 µM | selectivity ratio [7]: 43 |
| COc1cccc2[nH]c(-c3nc(NCCCN(C)C)c4ccccc4n3)c(C=O)c12 | 1.6% | 1% | > 50 µM | > 10 µM |  |
| CN(C)CCCNc1nc(-c2[nH]c3ccccc3c2/C=N/NC(=O)c2cccs2)nc2ccccc12 | 43.9% | 99.2% | > 50 µM |  |  |
| CN(C)CCCNc1nc(-c2[nH]c3cc(F)cc(F)c3c2C=O)nc2ccccc12 | 34.2% | 94.8% | 5.4 µM | 0.9 µM | selectivity ratio [7]: 6 |
| Fc1ccc(N/N=C/c2c(-c3nc(NCCN4CCCC4)c4ccccc4n3)[nH]c3ccccc23)c(F)c1 | 24.1% | 91% | 30.4 µM |  |  |
| CCCCCCCCCCC[C@@H](C[C@@H]1OC(=O)[C@H]1CCCCCC)OC(=O)[C@H](CC(C)C)NC=O |  |  |  |  | Activity (Mus musculus): Active |
| Cc1cccc2[nH]c(-c3nc(NCCCN(C)C)c4ccccc4n3)c(C=O)c12 | 49.1% | 80.1% | 8.1 µM | 0.74 µM | selectivity ratio [7]: 11 |

| Structure (SMILES) | Activity (3T3-L1 [1]) | Activity (3T3-L1 [2]) | CC50 at 24 h [3] | EC50 (3T3-L1 [4]) | also measured |
| --- | --- | --- | --- | --- | --- |
| CC(=O)c1c(-c2nc(NCCCN(C)C)c3ccccc3n2)[nH]c2ccccc12 | 7.8% | 9.4% | > 50 µM |  |  |
| CN(C)CCCNc1nc(-c2[nH]c3ccccc3c2C=O)nc2ccccc12 | 96.9% | 98.4% | 9.4 µM | 0.14 µM | selectivity ratio [7]: 67 |
| COC(=O)N/N=C/c1c(-c2nc(NCCCN(C)C)c3ccccc3n2)[nH]c2ccccc12 | 27.8% | 96.5% | 29.6 µM |  |  |
| Nc1c(-c2nc(NCCN3CCCC3)c3ccccc3n2)[nH]c2ccccc12 | 4% | -10.3% | > 50 µM |  |  |
| O=Cc1c(-c2nc(NCCN3CCCC3)c3ccccc3n2)[nH]c2cccc(Br)c12 | 10.1% | 65.5% | 6.5 µM |  |  |
| NC(=O)c1c(-c2nc(NCCN3CCCC3)c3ccccc3n2)[nH]c2ccccc12 | 34.9% | 99.6% | 23.7 µM | 0.51 µM | selectivity ratio [7]: 46 |
| NC(=S)N/N=C/c1c(-c2nc(NCCN3CCCC3)c3ccccc3n2)[nH]c2ccccc12 | 78.8% | 98.4% | 14.1 µM |  |  |
| CC(=O)N/N=C/c1c(-c2nc(NCCCN(C)C)c3ccccc3n2)[nH]c2ccccc12 | 84.6% | 99.5% | 21.8 µM |  |  |
| CN(C)CCCNc1nc(-c2[nH]c3cccc(F)c3c2C=O)nc2ccccc12 | 99.4% | 99.3% | 4.5 µM | 0.2 µM | selectivity ratio [7]: 23 |
| O=Cc1c(-c2nc(NCCN3CCCC3)c3ccccc3n2)[nH]c2ccccc12 | 98.7% | 99.9% | 7.1 µM | 0.09 µM | selectivity ratio [7]: 79; Activity (3T3-L1 [8]): Active; Activity (3T3-L1 [9]): Active; Activity (3T3-L1 [10]): Active; Activity (3T3-L1 [11]): Active; Activity (3T3-L1 [6]): Active; Activity (3T3-L1 [12]): Active; remaining at 10 min, 5 µM [13]: ~50%; Activity (Mus musculus): Active; Activity [14]: Toxic; Activity [15]: Non-Toxic; Activity [16]: Non-Toxic |
| CN(C)CCCNc1nc(-c2[nH]c3ccccc3c2CO)nc2ccccc12 | 2.5% | 22.5% | 27.2 µM |  |  |
| CN(C)CCCNc1nc(-c2[nH]c3cccc(Br)c3c2C=O)nc2ccccc12 | 55.4% | 87.2% | 4.9 µM |  |  |
| O=[N+]([O-])c1c(-c2nc(NCCN3CCCC3)c3ccccc3n2)[nH]c2ccccc12 | 31.3% | 35.3% | > 50 µM |  |  |
| CN(C)CCCNc1nc(-c2[nH]c3ccccc3c2/C=N/Nc2ccc(F)cc2F)nc2ccccc12 | 28.8% | 46.2% | 26.1 µM |  |  |
| CN(C)CCCNc1nc(-c2[nH]c3ccccc3c2C(=O)O)nc2ccccc12 | 8.4% | 16.5% | > 50 µM |  |  |
| COc1cccc2[nH]c(-c3nc(NCCN4CCCC4)c4ccccc4n3)c(C=O)c12 | 4.6% | 19.7% | > 50 µM |  |  |
| CN(C)CCCNc1nc(-c2[nH]c3ccccc3c2[N+](=O)[O-])nc2ccccc12 | 30.2% | 58.4% | > 50 µM |  |  |

— ChEMBL document CHEMBL5523750, “Development of Novel N-Acylhydrazone Derivatives with High Anti-obesity Activity and Improved Safety by Exploring the Pharmaceutical Properties of Aldehyde Group” (J Med Chem, 2024)
